This passage reports mutagenic call results from PubChem BioAssay AID1259407 (Chemical Carcinogenesis Research Information System (CCRIS), 2018).

The series relates to CCRIS mutagenicity, Ames/micronucleus/aberration tests. Kind of series: CCRIS mutagenicity studies.
[1] abbreviates: Test System: AMES SALMONELLA TYPHIMURIUM, Strain/Indicator: TA98, Metabolic Activation: NONE, Method: STANDARD PLATE.
The mark [2] stands for this setting: Test System: AMES SALMONELLA TYPHIMURIUM, Strain/Indicator: TA98, Metabolic Activation: RAT, LIVER, S-9, AROCLOR 1254, Method: STANDARD PLATE.
The mark [3] stands for this setting: Test System: AMES SALMONELLA TYPHIMURIUM, Strain/Indicator: TA100, Metabolic Activation: NONE, Method: STANDARD PLATE.
Where [4] appears, read: Test System: AMES SALMONELLA TYPHIMURIUM, Strain/Indicator: TA100, Metabolic Activation: RAT, LIVER, S-9, AROCLOR 1254, Method: STANDARD PLATE.
Setting [5] is: End Point: IN VITRO CHROMOSOMAL ABERRATIONS, Test System: CHINESE HAMSTER OVARY CELLS, Metabolic Activation: NONE.
Where [6] appears, read: End Point: IN VITRO CHROMOSOMAL ABERRATIONS, Test System: CHINESE HAMSTER OVARY CELLS, Metabolic Activation: RAT, LIVER, S-9, AROCLOR 1254.

Activity calls are given as the source filed them. How the calls were made is not given here.

Take `CC(=O)Nc1ccc(OCC(O)CNC(C)C)cc1` (stereo not given): the mutagenic call reads like this: (Test System: AMES SALMONELLA TYPHIMURIUM, Strain/Indicator: TA98, Metabolic Activation: NONE) “inactive; negative”; under setting [1], “inactive; negative”; (Test System: AMES SALMONELLA TYPHIMURIUM, Strain/Indicator: TA98, Metabolic Activation: RAT, LIVER, S-9, AROCLOR 1254) “inactive; negative”; under setting [2], “inactive; negative”; (Test System: AMES SALMONELLA TYPHIMURIUM, Strain/Indicator: TA100, Metabolic Activation: NONE) “inactive; negative”; under setting [3], “inactive; negative”. Also, the mutagenic call is “inactive; negative” (Test System: AMES SALMONELLA TYPHIMURIUM, Strain/Indicator: TA100, Metabolic Activation: RAT, LIVER, S-9, AROCLOR 1254); “inactive; negative” under setting [4]; “inactive; negative” (Test System: AMES SALMONELLA TYPHIMURIUM, Strain/Indicator: TA1535, Metabolic Activation: NONE); “inactive; negative” (Test System: AMES SALMONELLA TYPHIMURIUM, Strain/Indicator: TA1535, Metabolic Activation: RAT, LIVER, S-9, AROCLOR 1254); “inactive; negative” (Test System: AMES SALMONELLA TYPHIMURIUM, Strain/Indicator: TA1537, Metabolic Activation: NONE); “inactive; negative” (Test System: AMES SALMONELLA TYPHIMURIUM, Strain/Indicator: TA1537, Metabolic Activation: RAT, LIVER, S-9, AROCLOR 1254).

Consider `CCCCCCCCCCCCCC(=O)ON(C(=O)CCCCCCCCCCCCC)c1ccc2c(c1)Cc1ccccc1-2`, for which the mutagenic call (Test System: UDS HUMAN FIBROBLASTS, Strain/Indicator: THY INCORP (NON-S-PHASE), Metabolic Activation: NONE, Method: AUTORADIOGRAPHY) is “active; positive”.

Consider `Cc1ccc(C(C)C)cc1O`, for which the mutagenic call is, setting by setting: under setting [1], “inactive; negative”; (Test System: AMES SALMONELLA TYPHIMURIUM, Strain/Indicator: TA98, Metabolic Activation: S-9, Method: STANDARD PLATE) “inactive; negative”; under setting [3], “inactive; negative”; (Test System: AMES SALMONELLA TYPHIMURIUM, Strain/Indicator: TA100, Metabolic Activation: S-9, Method: STANDARD PLATE) “inactive; negative”.

For `FC(F)(F)C(Cl)Br` (stereo not given), the mutagenic call by setting is: under setting [5], “inactive; negative”; under setting [6], “inactive; negative”; (Test System: AMES SALMONELLA TYPHIMURIUM, Strain/Indicator: TA98, Metabolic Activation: HAMSTER, LIVER, S-9, AROCLOR 1254 (10%), Method: PREINCUBATION) “inactive; negative”; (Test System: AMES SALMONELLA TYPHIMURIUM, Strain/Indicator: TA98, Metabolic Activation: NONE, Method: PREINCUBATION) “inactive; negative”; (Test System: AMES SALMONELLA TYPHIMURIUM, Strain/Indicator: TA98, Metabolic Activation: RAT, LIVER, S-9, AROCLOR 1254 (10%), Method: PREINCUBATION) “inactive; negative”; (Test System: AMES SALMONELLA TYPHIMURIUM, Strain/Indicator: TA100, Metabolic Activation: HAMSTER, LIVER, S-9, AROCLOR 1254 (10%), Method: PREINCUBATION) “inactive; negative”. The mutagenic call was “inactive; negative” (Test System: AMES SALMONELLA TYPHIMURIUM, Strain/Indicator: TA100, Metabolic Activation: NONE, Method: PREINCUBATION); “inactive; negative” (Test System: AMES SALMONELLA TYPHIMURIUM, Strain/Indicator: TA100, Metabolic Activation: RAT, LIVER, S-9, AROCLOR 1254 (10%), Method: PREINCUBATION); “inactive; negative” (Test System: AMES SALMONELLA TYPHIMURIUM, Strain/Indicator: TA1535, Metabolic Activation: HAMSTER, LIVER, S-9, AROCLOR 1254 (10%), Method: PREINCUBATION); “inactive; negative” (Test System: AMES SALMONELLA TYPHIMURIUM, Strain/Indicator: TA1535, Metabolic Activation: NONE, Method: PREINCUBATION); “inactive; negative” (Test System: AMES SALMONELLA TYPHIMURIUM, Strain/Indicator: TA1535, Metabolic Activation: RAT, LIVER, S-9, AROCLOR 1254 (10%), Method: PREINCUBATION); “inactive; negative” (Test System: AMES SALMONELLA TYPHIMURIUM, Strain/Indicator: TA1537, Metabolic Activation: HAMSTER, LIVER, S-9, AROCLOR 1254 (10%), Method: PREINCUBATION). Further, the mutagenic call is “inactive; negative” (Test System: AMES SALMONELLA TYPHIMURIUM, Strain/Indicator: TA1537, Metabolic Activation: NONE, Method: PREINCUBATION) and “inactive; negative” (Test System: AMES SALMONELLA TYPHIMURIUM, Strain/Indicator: TA1537, Metabolic Activation: RAT, LIVER, S-9, AROCLOR 1254 (10%), Method: PREINCUBATION).

Turning to `COCC(O)Cn1ccnc1[N+](=O)[O-]` (stereo not given), the mutagenic call (Test System: E. COLI, Strain/Indicator: WP2 UVRA, Metabolic Activation: NONE, Method: STANDARD PLATE) was “active; positive”.

In the case of `ClCC(Cl)(Cl)Cl`, the mutagenic call is “active; positive (ploidy)” (End Point: IN VITRO CHROMOSOMAL ABERRATIONS, Test System: CHINESE HAMSTER LUNG FIBROBLAST CELLS (CHL/IU), Metabolic Activation: RAT, LIVER, S-9, PHENOBARBITAL AND 5,6-BENZOFLAVONE); “inactive; negative; precipitation occurred at all doses” under setting [5]; “inactive; negative; precipitation occurred at all doses” under setting [6]; “inactive; negative” (Test System: AMES SALMONELLA TYPHIMURIUM, Strain/Indicator: TA97, Metabolic Activation: NONE, Method: STANDARD PLATE); “active; positive” (Test System: AMES SALMONELLA TYPHIMURIUM, Strain/Indicator: TA97, Metabolic Activation: RAT, LIVER, S-9, AROCLOR 1254, Method: STANDARD PLATE); “active; positive” under setting [1]. Further, the mutagenic call under setting [2] was “active; positive”; the mutagenic call under setting [3] was “active; positive”; the mutagenic call under setting [4] is “active; positive”; the mutagenic call (Test System: AMES SALMONELLA TYPHIMURIUM, Strain/Indicator: TA104, Metabolic Activation: NONE, Method: STANDARD PLATE) is “inactive; negative”; the mutagenic call (Test System: AMES SALMONELLA TYPHIMURIUM, Strain/Indicator: TA104, Metabolic Activation: RAT, LIVER, S-9, AROCLOR 1254, Method: STANDARD PLATE) is “active; positive”.

In the case of `[Cl-].[Cl-].[Cl-].[Cr+3].c1cnc2c(c1)ccc1cccnc12.c1cnc2c(c1)ccc1cccnc12`, the mutagenic call under setting [3] was “active; positive”.

On to `CCCCCCOC(=O)NO`, for which the mutagenic call (Test System: E. COLI, Strain/Indicator: WP2 UVRA, Metabolic Activation: NONE, Method: FLUCTUATION TEST) is “active; positive”.
